Experimental data: patent publication US6737383B1, “Herbicidal oxadiazolidines” (priority 1999, dated 2004)

Tests used:
crabgrass = experiment: Test B pre/postemergence crabgrass; format: in vivo, Digitaria sanguinalis
In short: (§1)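 Test chemicals in a non-phytotoxic solvent mixture with surfactant were sprayed preemergence onto planted seeds and postemergence onto plants 2 to 18 cm tall (1- to 4-leaf stage). After twelve to sixteen days in a greenhouse, injury was visually rated against untreated controls from 0 (no effect) to 10 (complete control).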

surinam grass = experiment: Test B pre/postemergence surinam grass; format: in vivo, Brachiaria decumbens
In short: as §1

rape = experiment: Test B pre/postemergence rape; format: in vivo, Brassica napus
In short: as §1

cocklebur = experiment: Test B pre/postemergence cocklebur; format: in vivo, Xanthium strumarium
In short: as §1

duck salad = experiment: Test B flood test duck salad; format: in vivo, Heteranthera limosa
In short: (§2)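 Each value is a visual injury score relative to controls, with 10 meaning complete control and 0 no effect. Evaluation took place twelve to sixteen days after the 2-leaf-stage plants were treated and kept in the greenhouse.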

bamyardgrass = experiment: Test B flood test barnyardgrass; format: in vivo, Echinochloa crus-galli
In short: as §2

giant foxtail = experiment: Test B pre/postemergence giant foxtail; format: in vivo, Setaria faberii
In short: as §1

rice = experiment: Test B flood test rice; format: in vivo, Oryza sativa
In short: as §2

purple nutsedge = experiment: Test B pre/postemergence purple nutsedge; format: in vivo, Cyperus rotundus
In short: as §1

smallflower flatsedge = experiment: Test B flood test smallflower flatsedge; format: in vivo, Cyperus difformis
In short: as §2

corn = experiment: Test B pre/postemergence corn; format: in vivo, Zea mays
In short: as §1

wild oat = experiment: Test B pre/postemergence wild oat; format: in vivo, Avena fatua
In short: as §1

sugar beet = experiment: Test B pre/postemergence sugar beet; format: in vivo, Beta vulgaris
In short: as §1

morningglory = experiment: Test B pre/postemergence morningglory; format: in vivo, Ipomoea hederacea
In short: as §1

wheat = experiment: Test B pre/postemergence wheat; format: in vivo, Triticum aestivum
In short: as §1

pigweed = experiment: Test B pre/postemergence pigweed; format: in vivo, Amaranthus retroflexus
In short: as §1

[1] = Postemergence, Rate 125 g/ha, scale of 0 to 10 where 0 is no effect and 10 is complete control
[2] = Preemergence, Rate 62 g/ha, scale of 0 to 10 where 0 is no effect and 10 is complete control
[3] = Preemergence, Rate 125 g/ha, 0 is no effect, 10 is complete control
[4] = Preemergence, Rate 250 g/ha, scale 0 to 10, 0 is no effect, 10 is complete control
[5] = Preemergence, Rate 500 g/ha, scale 0 to 10 (0 no effect, 10 complete control)
[6] = Rate 62 g/ha, Postemergence, scale of 0 to 10 where 0 is no effect and 10 is complete control
[7] = Rate 250 g/ha, Postemergence, scale 0 to 10, 0 is no effect, 10 is complete control
[8] = Rate 500 g/ha, Postemergence, scale 0 to 10
[9] = Postemergence (flood test species), Rate 125 g/ha, scale of 0 to 10 where 0 is no effect and 10 is complete control
[10] = Rate 62 g/ha, Postemergence section, flood test species, scale of 0 to 10 where 0 is no effect and 10 is complete control
[11] = Rate 250 g/ha, Postemergence (flood test), scale 0 to 10, 0 is no effect, 10 is complete control
[12] = Rate 500 g/ha, listed under Postemergence (flood test species), scale 0 to 10

**Q.** With `CC(C)N(C(=O)n1oc(=O)n(N(C)C)c1=O)c1ccc(F)cc1` [Compound 170] as the molecule, how does the “Crabgrass plant response rating” value (crabgrass; [1]) read?
**A.** 9

**Q.** What about the “Crabgrass plant response rating” value (crabgrass; [2]) of the same molecule?
**A.** 8

**Q.** And the “Crabgrass plant response rating (0 to 10 scale)” value (crabgrass; [3])?
**A.** 10

**Q.** And the “Crabgrass plant response rating” value (crabgrass; [4])?
**A.** 10

**Q.** What about the “Crabgrass plant response rating” value (crabgrass; [5]) of the same molecule?
**A.** 10

**Q.** And the “Crabgrass plant response rating” value (crabgrass; [6])?
**A.** 8

**Q.** And the “Plant response rating, Crabgrass” value (crabgrass; [7])?
**A.** 9

**Q.** And the “Crabgrass plant response rating” value (crabgrass; [8])?
**A.** 9

**Q.** And the “B. signalgrass plant response rating” value (surinam grass; [1])?
**A.** 6

**Q.** And the “B. signalgrass plant response rating” value (surinam grass; [2])?
**A.** 2

**Q.** And the “B. signalgrass plant response rating (0 to 10 scale)” value (surinam grass; [3])?
**A.** 9

**Q.** What about the “B. signalgrass plant response rating” value (surinam grass; [4]) of the same molecule?
**A.** 10

**Q.** And the “B. signalgrass plant response rating” value (surinam grass; [5])?
**A.** 10

**Q.** And the “B. signalgrass plant response rating” value (surinam grass; [6])?
**A.** 3

**Q.** What about the “Plant response rating, B. signalgrass” value (surinam grass; [7]) of the same molecule?
**A.** 9

**Q.** What about the “B. signalgrass plant response rating” value (surinam grass; Rate 500 g/ha, Postemergence, scale 0 to 10, 0 no effect, 10 complete control) of the same molecule?
**A.** 10

**Q.** What about the “Rape plant response rating” value (rape; [1]) of the same molecule?
**A.** 0

**Q.** And the “Rape plant response rating” value (rape; [2])?
**A.** 2

**Q.** And the “Rape plant response rating (0 to 10 scale)” value (rape; [3])?
**A.** 8

**Q.** What about the “Rape plant response rating” value (rape; [4]) of the same molecule?
**A.** 10

**Q.** And the “Rape plant response rating” value (rape; [5])?
**A.** 10

**Q.** And the “Rape plant response rating” value (rape; [6])?
**A.** 0

**Q.** What about the “Plant response rating, Rape” value (rape; [7]) of the same molecule?
**A.** 0

**Q.** What about the “Rape plant response rating” value (rape; [8]) of the same molecule?
**A.** 3

**Q.** And the “Cocklebur plant response rating” value (cocklebur; [1])?
**A.** 0

**Q.** And the “Cocklebur plant response rating” value (cocklebur; [2])?
**A.** 0

**Q.** What about the “Cocklebur plant response rating (0 to 10 scale)” value (cocklebur; [3]) of the same molecule?
**A.** 0

**Q.** And the “Cocklebur plant response rating” value (cocklebur; [4])?
**A.** 0

**Q.** And the “Cocklebur plant response rating” value (cocklebur; [5])?
**A.** 9

**Q.** What about the “Cocklebur plant response rating” value (cocklebur; [6]) of the same molecule?
**A.** 0

**Q.** And the “Plant response rating, Cocklebur” value (cocklebur; [7])?
**A.** 0

**Q.** And the “Cocklebur plant response rating” value (cocklebur; [8])?
**A.** 0

**Q.** And the “Ducksalad plant response rating” value (duck salad; [9])?
**A.** 0

**Q.** What about the “Ducksalad plant response rating” value (duck salad; [10]) of the same molecule?
**A.** 0

**Q.** What about the “Plant response rating, Ducksalad” value (duck salad; [11]) of the same molecule?
**A.** 0

**Q.** And the “Ducksalad plant response rating” value (duck salad; [12])?
**A.** 0

**Q.** And the “Barnyardgrass plant response rating” value (bamyardgrass; [9])?
**A.** 0

**Q.** What about the “Barnyardgrass plant response rating” value (bamyardgrass; [10]) of the same molecule?
**A.** 0

**Q.** What about the “Plant response rating, Barnyardgrass” value (bamyardgrass; [11]) of the same molecule?
**A.** 0

**Q.** What about the “Barnyardgrass plant response rating” value (bamyardgrass; [12]) of the same molecule?
**A.** 0

**Q.** And the “Giant foxtail plant response rating” value (giant foxtail; [1])?
**A.** 7

**Q.** What about the “Giant foxtail plant response rating” value (giant foxtail; [2]) of the same molecule?
**A.** 9

**Q.** And the “Giant foxtail plant response rating (0 to 10 scale)” value (giant foxtail; [3])?
**A.** 10

**Q.** And the “Giant foxtail plant response rating” value (giant foxtail; [4])?
**A.** 10

**Q.** What about the “Giant foxtail plant response rating” value (giant foxtail; [5]) of the same molecule?
**A.** 10

**Q.** And the “Giant foxtail plant response rating” value (giant foxtail; [6])?
**A.** 4

**Q.** And the “Plant response rating, Giant foxtail” value (giant foxtail; [7])?
**A.** 8

**Q.** And the “Giant foxtail plant response rating” value (giant foxtail; [8])?
**A.** 8

**Q.** And the “Rice plant response rating” value (rice; [9])?
**A.** 0

**Q.** What about the “Rice plant response rating” value (rice; [10]) of the same molecule?
**A.** 0

**Q.** What about the “Plant response rating, Rice” value (rice; [11]) of the same molecule?
**A.** 0

**Q.** What about the “Rice plant response rating” value (rice; [12]) of the same molecule?
**A.** 0

**Q.** What about the “Nutsedge plant response rating” value (purple nutsedge; [1]) of the same molecule?
**A.** 2

**Q.** And the “Nutsedge plant response rating” value (purple nutsedge; [2])?
**A.** 0

**Q.** What about the “Nutsedge plant response rating (0 to 10 scale)” value (purple nutsedge; [3]) of the same molecule?
**A.** 9

**Q.** And the “Nutsedge plant response rating” value (purple nutsedge; [4])?
**A.** 9

**Q.** And the “Nutsedge plant response rating” value (purple nutsedge; [5])?
**A.** 9

**Q.** What about the “Nutsedge plant response rating” value (purple nutsedge; [6]) of the same molecule?
**A.** 2

**Q.** And the “Plant response rating, Nutsedge” value (purple nutsedge; [7])?
**A.** 7

**Q.** What about the “Nutsedge plant response rating” value (purple nutsedge; [8]) of the same molecule?
**A.** 7

**Q.** What about the “S. Flatsedge plant response rating” value (smallflower flatsedge; [9]) of the same molecule?
**A.** 0

**Q.** And the “S. Flatsedge plant response rating” value (smallflower flatsedge; [10])?
**A.** 0

**Q.** What about the “Plant response rating, S. Flatsedge” value (smallflower flatsedge; [11]) of the same molecule?
**A.** 0

**Q.** What about the “S. Flatsedge plant response rating” value (smallflower flatsedge; [12]) of the same molecule?
**A.** 0

**Q.** And the “Corn plant response rating” value (corn; [1])?
**A.** 0

**Q.** What about the “Corn plant response rating” value (corn; [2]) of the same molecule?
**A.** 0

**Q.** And the “Corn plant response rating (0 to 10 scale)” value (corn; [3])?
**A.** 2

**Q.** What about the “Corn plant response rating” value (corn; [4]) of the same molecule?
**A.** 6

**Q.** What about the “Corn plant response rating” value (corn; [5]) of the same molecule?
**A.** 9

**Q.** What about the “Corn plant response rating” value (corn; [6]) of the same molecule?
**A.** 0

**Q.** And the “Plant response rating, Corn” value (corn; [7])?
**A.** 0

**Q.** And the “Corn plant response rating” value (corn; [8])?
**A.** 0

**Q.** What about the “Wild oats plant response rating” value (wild oat; [2]) of the same molecule?
**A.** 7

**Q.** What about the “Wild oats plant response rating (0 to 10 scale)” value (wild oat; [3]) of the same molecule?
**A.** 9

**Q.** What about the “Wild oats plant response rating” value (wild oat; [4]) of the same molecule?
**A.** 10

**Q.** What about the “Wild oats plant response rating” value (wild oat; [5]) of the same molecule?
**A.** 10

**Q.** What about the “Plant response rating, Wild oats” value (wild oat; [7]) of the same molecule?
**A.** 3

**Q.** What about the “Wild oats plant response rating” value (wild oat; [8]) of the same molecule?
**A.** 6

**Q.** What about the “Sugarbeets plant response rating” value (sugar beet; [1]) of the same molecule?
**A.** 0

**Q.** And the “Sugarbeets plant response rating” value (sugar beet; [2])?
**A.** 4

**Q.** And the “Sugarbeets plant response rating (0 to 10 scale)” value (sugar beet; [3])?
**A.** 8

**Q.** What about the “Sugarbeets plant response rating” value (sugar beet; [4]) of the same molecule?
**A.** 8

**Q.** And the “Sugarbeets plant response rating” value (sugar beet; [5])?
**A.** 10

**Q.** What about the “Sugarbeets plant response rating” value (sugar beet; [6]) of the same molecule?
**A.** 0

**Q.** What about the “Plant response rating, Sugarbeets” value (sugar beet; [7]) of the same molecule?
**A.** 2

**Q.** What about the “Sugarbeets plant response rating” value (sugar beet; [8]) of the same molecule?
**A.** 4

**Q.** What about the “Morningglory plant response rating” value (morningglory; [1]) of the same molecule?
**A.** 1

**Q.** What about the “Morningglory plant response rating” value (morningglory; [2]) of the same molecule?
**A.** 0

**Q.** And the “Morningglory plant response rating (0 to 10 scale)” value (morningglory; [3])?
**A.** 3

**Q.** What about the “Morningglory plant response rating” value (morningglory; [4]) of the same molecule?
**A.** 6

**Q.** What about the “Morningglory plant response rating” value (morningglory; [5]) of the same molecule?
**A.** 10

**Q.** What about the “Morningglory plant response rating” value (morningglory; [6]) of the same molecule?
**A.** 0

**Q.** What about the “Plant response rating, Morningglory” value (morningglory; [7]) of the same molecule?
**A.** 1

**Q.** What about the “Morningglory plant response rating” value (morningglory; [8]) of the same molecule?
**A.** 2

**Q.** What about the “Wheat plant response rating” value (wheat; [2]) of the same molecule?
**A.** 5

**Q.** And the “Wheat plant response rating (0 to 10 scale)” value (wheat; [3])?
**A.** 6

**Q.** What about the “Wheat plant response rating” value (wheat; [4]) of the same molecule?
**A.** 8

**Q.** What about the “Wheat plant response rating” value (wheat; [5]) of the same molecule?
**A.** 8

**Q.** And the “Plant response rating, Wheat” value (wheat; [7])?
**A.** 6

**Q.** And the “Wheat plant response rating” value (wheat; [8])?
**A.** 7

**Q.** What about the “Redroot pigweed plant response rating” value (pigweed; [1]) of the same molecule?
**A.** 0

**Q.** And the “Redroot pigweed plant response rating” value (pigweed; [2])?
**A.** 10

**Q.** What about the “Redroot pigweed plant response rating (0 to 10 scale)” value (pigweed; [3]) of the same molecule?
**A.** 10

**Q.** And the “Redroot pigweed plant response rating” value (pigweed; [4])?
**A.** 10

**Q.** And the “Redroot pigweed plant response rating” value (pigweed; [5])?
**A.** 10

**Q.** What about the “Redroot pigweed plant response rating” value (pigweed; [6]) of the same molecule?
**A.** 0

**Q.** What about the “Plant response rating, Redroot pigweed” value (pigweed; [7]) of the same molecule?
**A.** 6

**Q.** What about the “Redroot pigweed plant response rating” value (pigweed; [8]) of the same molecule?
**A.** 6
